# Tests used:
# HEK293 and Neuro2A cells = experiment: Immucillin-H effects on β-ara-Cl-NR toxicity (MTT); format: cell-based; details: 10 μM ImmH with 5-100 μM β-ara-Cl-NR, 12 hours
# Procedure: We speculated that like NR, the chloro derivatives might degrade in cells by action of an enzyme that converts it to ribose-1-phosphate. This enzyme is called purine nucleoside phosphorylase (PNP). Immucillin-H (gift of Schramm lab) is a potent inhibitor of PNP. […] Assay: • 1. HEK293 and Neuro2A cells were seeded in 96-well plate at a density of 25,000 cells/well the day before the experiment starts; • 2. After the cells reach 50˜60% confluency, media was taken out, and 100 μL of fresh media was added to each well; • 3. β-ara-Cl-NR (black) and ImmH (bold) were plated according to the following Table 12: • 4. After 12 hours' incubation at 37° C., the media was taken out, 100 μL of fresh media was added to each well along with 20 μL of 5 mg/mL of MTT solution (in PBS); • 5. After 2 hours' incubation at 37° C., media was taken out and 100 μL of DMSO was added to each well, the plate was mixed on shaker for 5 mins; • 6. Absorbance was measured at 570 nm.
# HEK293 cells = experiment: Toxicity to HEK293 cells (MTT); format: cell-based; details: for 100 μM absorbance / 100 μM relative viability: HEK293, 100 μM; for 100 μM absorbance / 100 μM relative viability / 500 μM absorbance / 500 μM relative viability: 12 hours; for 100 μM absorbance / 500 μM absorbance: MTT 1.5 hours, 570 nm; for 100 μM relative viability / 500 μM relative viability: control = 1; for 500 μM absorbance / 500 μM relative viability: HEK293, 500 μM; for EC50: 2′-deoxy-2′-fluoro-nucleosides and nucleotides
# Procedure: 1. HEK293 cells were seeded in 96-well plate at a density of 25,000 cells/well the day before the experiment starts;
# 2. After the cells reach 50˜60% confluency, media was taken out, and 100 μL of fresh media was added to each well;
# 3. F-derivatives were plated at 100 and 500 μM (in duplicates) concentrations;
# 4. After 12 hours' incubation at 37° C., the media was taken out, 100 μL of fresh media was added to each well along with 20 μL of 5 mg/mL of MTT solution (in PBS);
# 5. After 1.5 hours' incubation at 37° C., media was taken out and 100 μL of DMSO was added to each well, the plate was mixed on shaker for 5 mins;
# (§1) Absorbance was measured at 570 nm.
# (§2) Assay for Determining Toxicity to HEK293 and Neuro2A Cells • 1. HEK293 and Neuro2A cells were seeded in 96-well plate at a density of 25,000 cells/well the day before the experiment starts; • 2. After the cells reach 50˜60% confluency, media was taken out, and 100 μL of fresh media was added to each well; • 3. Cl-derivatives were plated at 100 and 500 μM (in duplicates) concentrations; • 4. After 12 hours' incubation at 37° C., the media was taken out, 100 μL of fresh media was added to each well along with 20 μL of 5 mg/mL of MTT solution (in PBS); • 5. After 2 hours' incubation at 37° C., media was taken out and 100 μL of DMSO was added to each well, the plate was mixed on shaker for 5 mins; • 6. Absorbance was measured at 570 nm.
# SirT2 = target: T1, SirT2 (Homo sapiens, UniProt Q8IXJ6); experiment: SirT2 activity assay (HPLC of 2′- and 3′-AADPR); format: biochemical; details: 800 μM NAD+, 500 μM H3 peptide, pH 7.5
# T1 sequence (Q8IXJ6 1-389): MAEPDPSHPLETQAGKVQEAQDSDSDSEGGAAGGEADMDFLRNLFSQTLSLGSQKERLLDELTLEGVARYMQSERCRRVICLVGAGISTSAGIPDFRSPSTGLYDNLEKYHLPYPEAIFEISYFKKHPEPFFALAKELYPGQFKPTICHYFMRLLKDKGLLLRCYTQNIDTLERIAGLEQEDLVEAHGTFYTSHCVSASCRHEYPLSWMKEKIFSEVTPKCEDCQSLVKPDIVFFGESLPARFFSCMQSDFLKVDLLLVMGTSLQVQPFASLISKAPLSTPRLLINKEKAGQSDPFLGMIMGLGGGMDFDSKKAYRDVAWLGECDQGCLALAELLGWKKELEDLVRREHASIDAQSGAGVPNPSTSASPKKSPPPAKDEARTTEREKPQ
# Procedure: (§3) Reactions containing 800 μM NAD^+, 500 μM H3 peptide, and 100 mM phosphate buffer at pH 7.5, with varying concentrations of 2′-deoxy-2′-fluoro-nucleosides or nucleotides were initiated by addition of SirT2 enzyme to a concentration of 16.6 μM. Reactions were incubated for 45 mins at 37° C. and quenched by addition of trifluoroacetic acid to pH 2. After centrifugation to remove precipitates, reactions were injected on HPLC for activity analysis. Production of 2′- and 3′-AADPR were analyzed at 260 nm.
# as §3, with “SirT2 Activity Assay: Reactions containing” for “Reactions containing”, “concentrations of 2′-deoxy-2′-chloro-nucleosides were initiated” for “concentrations of 2′-deoxy-2′-fluoro-nucleosides or nucleotides were initiated”
# Neuro2A cells = experiment: Toxicity to Neuro2A cells (MTT); format: cell-based; details: for 100 μM absorbance / 100 μM relative viability / 500 μM absorbance / 500 μM relative viability: 12 hours; for 100 μM absorbance / 500 μM absorbance: MTT 1.5 hours, 570 nm; for 100 μM relative viability / 500 μM relative viability: control = 1; for EC50: 2′-deoxy-2′-fluoro-nucleosides and nucleotides
# Procedure: 6. Neuro2A cells were seeded in 96-well plate at a density of 25,000 cells/well the day before the experiment starts;
# 7. After the cells reach 50˜60% confluency, media was taken out, and 100 μL of fresh media was added to each well;
# 8. […]
# 9. After 12 hours' incubation at 37° C., the media was taken out, 100 μL of fresh media was added to each well along with 20 μL of 5 mg/mL of MTT solution (in PBS);
# 10. After 1.5 hours' incubation at 37° C., media was taken out and 100 μL of DMSO was added to each well, the plate was mixed on shaker for 5 mins;
# as §1
# as §2, with “Cl-derivatives were plated at 100 and 500 μM (in duplicates) concentrations; • 4.” left out
# [1] = target: T2, cell developmental protein 38 (CD38) (Homo sapiens, UniProt P28907); details: mechanism-based inhibitor; previous studies (Refs. 10, 12); read-out: apparent Ki; cited from earlier work
# T2 sequence (P28907 1-300): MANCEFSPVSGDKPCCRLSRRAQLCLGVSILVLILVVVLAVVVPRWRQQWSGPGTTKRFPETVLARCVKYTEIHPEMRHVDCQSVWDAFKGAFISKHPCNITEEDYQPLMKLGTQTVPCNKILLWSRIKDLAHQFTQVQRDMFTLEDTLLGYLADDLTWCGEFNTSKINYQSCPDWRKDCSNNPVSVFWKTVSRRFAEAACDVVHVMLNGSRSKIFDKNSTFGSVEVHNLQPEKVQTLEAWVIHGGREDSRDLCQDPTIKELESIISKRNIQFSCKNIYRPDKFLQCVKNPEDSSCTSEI
# SirT1 = target: T3, SirT1 (Homo sapiens, UniProt Q96EB6); experiment: SirT1 activity assay (HPLC of 2′- and 3′-AADPR); format: biochemical; details: 200 μM NAD+, 100 μM JB12 peptide, pH 7.5, 30 mins at 37° C.
# T3 sequence (Q96EB6 1-747): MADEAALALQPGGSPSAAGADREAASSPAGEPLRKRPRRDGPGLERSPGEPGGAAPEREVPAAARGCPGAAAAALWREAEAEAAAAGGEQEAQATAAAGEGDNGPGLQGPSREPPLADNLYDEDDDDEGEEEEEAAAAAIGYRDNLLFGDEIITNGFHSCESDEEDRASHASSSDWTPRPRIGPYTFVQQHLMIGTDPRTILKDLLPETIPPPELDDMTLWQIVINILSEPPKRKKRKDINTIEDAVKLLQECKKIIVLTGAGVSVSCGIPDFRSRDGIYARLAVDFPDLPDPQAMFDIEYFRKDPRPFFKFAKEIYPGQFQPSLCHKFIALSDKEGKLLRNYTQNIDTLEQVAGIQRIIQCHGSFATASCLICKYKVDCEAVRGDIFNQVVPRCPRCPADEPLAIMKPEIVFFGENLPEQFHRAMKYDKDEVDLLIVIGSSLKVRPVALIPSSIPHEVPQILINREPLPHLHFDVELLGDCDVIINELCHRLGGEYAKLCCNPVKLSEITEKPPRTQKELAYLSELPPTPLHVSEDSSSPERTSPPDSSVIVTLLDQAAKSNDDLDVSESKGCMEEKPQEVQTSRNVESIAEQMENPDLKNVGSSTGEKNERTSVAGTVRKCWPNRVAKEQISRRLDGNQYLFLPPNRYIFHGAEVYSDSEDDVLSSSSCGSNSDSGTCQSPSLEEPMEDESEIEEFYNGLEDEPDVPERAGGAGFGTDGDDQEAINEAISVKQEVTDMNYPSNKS
# Procedure: as §3, with “200” for “800”, “100” for “500”, “JB12” for “H3”, “SirT1” for “SirT2”, “12.9” for “16.6”, “30” for “45”
# SirT1 Activity Assay: Reactions containing 200 μM NAD^+, 100 μM JB12 peptide, and 100 mM phosphate buffer at pH 7.5, with varying concentrations of 2′-deoxy-2′-chloro-nucleosides were initiated by addition of SirT1 enzyme to a concentration of 12.9 μM. Reactions were incubated for 30 mins at 37° C. and quenched by addition of trifluoroacetic acid to pH 2. After centrifugation to remove precipitates, reactions were injected on HPLC for activity analysis. Production of 2′- and 3′-AADPR were analyzed at 260 nm.
SirT2 inhibition (in words) (SirT2),Ki (SirT1) [µM],Structure (SMILES),effect of PNP inhibition on β-ara-Cl-NR toxicity (HEK293 and Neuro2A cells),100 μM absorbance (HEK293 cells),100 μM relative viability (HEK293 cells),500 μM absorbance (HEK293 cells),500 μM relative viability (HEK293 cells),EC50 (HEK293 cells; HEK293) [µM],100 μM absorbance (Neuro2A cells),100 μM relative viability (Neuro2A cells),500 μM absorbance (Neuro2A cells),500 μM relative viability (Neuro2A cells),EC50 (Neuro2A cells) [µM],Ki [1] [µM],"EC50 (HEK293 cells; Homo sapiens, HEK293, HEK293) [µM]","EC50 (Neuro2A cells; Mus musculus, N2a) [µM]"
–,–,O=c1[nH]cnc2c([C@@H]3N[C@H](CO)[C@@H](O)[C@H]3O)c[nH]c12 [Immucillin-H],largely incapable of preventing this toxicity,–,–,–,–,–,–,–,–,–,–,–,–,–
no inhibition,–,"NC(=O)c1ccc[n+]([C@@H]2O[C@H](COP(=O)([O-])O)C(O)C2F)c1 (stereo partly drawn) [ara-F-NMN, 2′-deoxy-2′-fluoro-arabino-nicotinamide mononucleotide]",–,1.267,0.5574,0,0,88,2.126,0.874,0.0143,0.006,164,0.061,–,–
–,60,"NC(=O)c1ccc[n+]([C@@H]2O[C@H](COP(=O)([O-])OP(=O)(O)OC[C@H]3O[C@@H](n4cnc5c(N)ncnc54)[C@H](O)[C@@H]3O)[C@@H](O)C2(F)F)c1 [gem-diF-NAD, 2′-deoxy-2′,2′-difluoro-NAD^+]",–,1.797,0.7905,1.556,0.6844,–,1.5765,0.648,1.1916,0.49,–,–,1130,400

# Source: patent publication US9790252B2, “2-fluorinated riboses and arabinoses and methods of use and synthesis” (CORNELL UNIVERSITY, priority 2009, dated 2017)
